In article PMC10652874, “Investigation into the mechanism of action of the antimicrobial peptide epilancin 15X” (Frontiers in Microbiology, 2023):

Experiments:
[1] = system: RNA biosynthesis in S. carnosus TM300; assay: Macromolecular synthesis assay: 3H-uridine incorporation into RNA; type: cell-based, Staphylococcus carnosus; settings: S. carnosus TM300, 2× MIC, three independent experiments
Procedure: (§1) Radiolabel incorporation experiments were carried out similarly as previously described but using S. carnosus ([Wu et al., 2019]). The OD600 of parallel nonradioactive cultures was measured at each time point to normalize the measured radioactivity and minimize effects due to cell death and growth inhibition. The radiolabeled reagents and their corresponding positive and negative antibiotic controls were as follows. […] All experiments were conducted independently three times.
(§2) Figure S3. Thre e in de pen den t ex perime nts of incorporation of (A) 14C- acetic acid into fatty acids, (B) 14C- thymi din e into D NA, (C) 3H-uridi ne into RNA, (D) 14C- lab el ed ami no acids into protei n, and (E) 14C- label ed GlcNAc into cell w all in S. carnosus TM300 cells treated with vario u s antimicro bia l agents. T he p ercent i nco rpo ratio n at 0 min was measured after incubati ng the cel l cultur e with 0.8 μCi/mL radioactive precursors for 15 min. Then 0.5x, 1x, 2x, or 4x MIC epilanci n 15X and 2x MIC controls were added to the cell cultur e (t=0), and t he percent incorporation was measur ed ov er time. Positive controls a re gr een and negative controls are black (cells o nly) an d blu e (co mpo und w ith mo d e o f actio n unr elate d to th e a ssay i n que stio n). […]

[2] = system: cell wall biosynthesis in S. carnosus TM300; assay: Macromolecular synthesis assay: 14C-N-acetyl-D-glucosamine incorporation into cell wall; type: cell-based, Staphylococcus carnosus; settings: S. carnosus TM300, three independent experiments
Procedure: as §1, §2

[3] = system: DNA biosynthesis in S. carnosus TM300; assay: Macromolecular synthesis assay: 14C-thymidine incorporation into DNA; type: cell-based, Staphylococcus carnosus; settings: S. carnosus TM300, 2× MIC, three independent experiments
Procedure: as §1, §2

S. carnosus TM300 = assay: MIC determination in 96-well microtiter plate; type: cell-based, Staphylococcus carnosus; settings: BHI, 37°C, 10^5 CFU/mL, OD600 after 18 h
Procedure: MIC determination was performed in a 96-well microtiter plate as described previously ([Wu et al., 2019]). Sensitive bacterial culture was grown in the appropriate medium (BHI for S. carnosus; LB for B. subtilis) at 37°C overnight. The culture was diluted to 10^5 CFU/mL in medium in each well. Epilancin 15X or its analog was dissolved in water and serially diluted to obtain final concentrations of 20, 10, 5, 2.5, 1.25, 0.625, 0.3125, 0.156, 0.078, 0.039, 0.019, and 0.009 μM. OD600 readings were obtained after 18 h using a Synergy H4 Hybrid Multi-Mode Microplate Reader (BioTeK). Cell-free untreated medium, and untreated cell culture were used as negative controls. The MIC of nisin against B. subtilis BSF2470 was determined following the same methods.

B. subtilis BSF2470 = assay: Membrane permeability study with propidium iodide (flow cytometry); type: cell-based, Bacillus subtilis; settings: B. subtilis BSF2470, 20 min exposure, 0.5x, 1x, 4x MIC, n = 3
Procedure: Cultures of S. carnosus TM300 and B. subtilis BSF2470 were grown to OD600 1.0 and diluted to OD600 0.1 in fresh BHI or LB medium, respectively. The culture was then combined with a final concentration of 25 μM PI (ThermoFisher P3566), 1 mM HEPES, and 1 mM glucose. […] Another two tubes were prepared without antibiotic treatment as controls. The culture was analyzed with a BD Biosciences LSR II flow cytometer for S. carnosus and a BD Biosciences LSRFortessa for B. subtilis using excitation at 488 nm with an argon laser and measurement of emission through a band-pass filter at 695/40 nm. A minimum of 30,000 events were detected for each sample. The experiment was repeated three times, and the mean PI uptake value was determined. The results were calibrated such that the mean PI uptake from the 4x MIC nisin-treated cell culture was set as 100% PI uptake.

[4] = Liposome permeabilization (sulforhodamine B dye leakage) assay; type: biochemical
Procedure: For unilamellar liposome preparation, a total of 100 μL of 30 mM 1,2-dioleoyl-sn-glycero-3-phosphocholine (DOPC; Avanti Polar Lipids) and the following lipids dissolved in chloroform were mixed in a glass tube in the appropriate ratio: POPG (Avanti Polar Lipids), POPE (Avanti Polar Lipids), POPS (Avanti Polar Lipids), and purified S. aureus LTA (InvivoGen, catalog # tlrl-pslta). The solvent was evaporated under a stream of nitrogen gas and the glass vial was placed in a vacuum desiccator overnight. A total of 1 mL HEPES-Buffered Saline (HBS) composed of 5 mM HEPES (pH 7.6) and 150 mM NaCl, and 30 mM sulforhodamine B (SRB) was added to each vial. The lipid solution was vortexed for 10 min and lipids were hydrated by five freeze–thaw cycles with liquid N2. The lipid solution was diluted with HBS buffer to 3 mL and the solution was passed 29 times through a mini extruder (Avanti Polar Lipids) with a filter of […] pore diameter to form lipid vesicles of homogeneous size. The extruded solution was passed through Sephadex 50 resin to remove the free sulforhodamine B (liposomes eluted faster than the dye). The size of the liposomes was tested using dynamic light scattering (DLS, Malvern Zetasizer, Dr. Catherine J. Murphy lab, Department of Chemistry, UIUC) and analyzed using Zetasizer software. The DLS data quality was interpreted by the instrument through its embedded algorithm to confirm the data quality. The polydispersity index (PDI), which measures the size distributions was used to monitor the quality of the liposomes. The small PDI indices obtained from DLS readings indicate that the liposomes were monodisperse ([Farkas and Kramar, 2021]). The total lipid concentration was measured with NMR spectroscopy using a reported method ([Hein et al., 2016]). The vesicles were stored at 4°C and used within 1–2 days.
For the dye leakage assay, 100 μL SRB-loaded liposomes (80 μM lipid; 100–200 nm size) were placed in each well in a 96-well microplate. Fluorescence of SRB-loaded liposomes was monitored over time on a Synergy H4 Hybrid Multi-Mode Microplate Reader (BioTeK) using λEx at […]. To each well, a different concentration of peptides or 0.02% triton X-100 was added 5 min after adding liposomes. Liposomes supplied with water were treated as the negative control. The fluorescence emission was measured every 15 s for 2 h. Fluorescence counts were recorded as % leakage and plotted as a function of time. The concentration of epilancin 15X where the SRB leaked from the liposomes reached half of the triton X-100 leakage was recorded as C1/2, and C1/2 values were plotted against DOPC and supplemented lipid concentrations.

Epilancin 15X
RNA biosynthesis (3H-uridine incorporation) [1]: considerably stronger effect than that observed with the respective negative controls | cell wall biosynthesis (14C-N-acetyl-D-glucosamine incorporation) [2]: no clear change | DNA biosynthesis (14C-thymidine incorporation) [3]: considerably stronger effect than that observed with the respective negative controls | MIC (S. carnosus TM300): 0.16 µM | PI uptake (membrane disruption) (B. subtilis BSF2470): increase | EC50 ([4]; DOPC liposomes supplemented with POPE, highest concentration tested 64 µM, read-out: C1/2 (concentration giving 50% of triton X-100 leakage)): > 64 µM | fluorescence emission from SRB dye leakage ([4]; DOPC liposomes with negatively charged lipids LTA, POPS, POPG): increased | SRB dye leakage from DOPC liposomes ([4]; DOPC only, 80 μM lipid, epilancin 15X up to 64 μM, fluorescence over 2 h): not detected | C1/2 values as a function of supplemented lipid concentration ([4]; negatively charged lipids S. aureus LTA, POPG, POPS): negative slope | SRB dye leakage from DOPC liposomes doped with POPE ([4]; neutral lipid POPE): not detected | liposome leakage as a function of supplemented lipid concentration ([4]; neutral lipids POPC and POPE): no change in liposome leakage
